Experimental data: the kinase profiling compilation of Christmann-Franck et al. (2016)

How the values were obtained:
Assay in all cases: radiometric filter-binding kinase assay, Kinase HotSpot
Details in all cases: compound 0.5 µM; ATP 10 µM
RPS6KA5 KD2 (human) = RPS6KA5 KD2 (human) (UniProt O75582)
SGK2 (human) = SGK2 (human) (UniProt Q9HBY8)
FGFR3 (human) = FGFR3 (human) (UniProt P22607)
MAPK12 (human) = MAPK12 (human) (UniProt P53778)
SRC (human) = SRC (human) (UniProt P12931)
CDK4 CCND3 (human) = CDK4 CCND3 (human) (UniProt P30281+P11802)
MST4 (human) = MST4 (human) (UniProt Q9P289)
Sequence of MST4 (human) (Q9P289 whole entry, looked up): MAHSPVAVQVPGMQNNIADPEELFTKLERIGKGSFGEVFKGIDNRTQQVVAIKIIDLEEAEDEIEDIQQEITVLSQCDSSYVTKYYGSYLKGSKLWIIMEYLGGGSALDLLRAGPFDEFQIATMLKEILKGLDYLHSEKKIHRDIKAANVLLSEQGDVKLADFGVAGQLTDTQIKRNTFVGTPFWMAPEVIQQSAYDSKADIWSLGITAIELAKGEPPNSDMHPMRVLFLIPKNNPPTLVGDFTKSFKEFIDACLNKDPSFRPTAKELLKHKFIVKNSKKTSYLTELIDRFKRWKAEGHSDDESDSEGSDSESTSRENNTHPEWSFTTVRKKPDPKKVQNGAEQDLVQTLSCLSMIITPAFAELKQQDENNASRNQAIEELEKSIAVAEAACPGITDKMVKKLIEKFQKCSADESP

ZAP70 (human) = ZAP70 (human) (UniProt P43403)
PKN2 (human) = PKN2 (human) (UniProt Q16513)
PRKCZ (human) = PRKCZ (human) (UniProt Q05513)
HCK (human) = HCK (human) (UniProt P08631)
PAK4 (human) = PAK4 (human) (UniProt O96013)
STK11 (human) = STK11 (human) (UniProt Q15831)
WEE1 (human) = WEE1 (human) (UniProt P30291)
TGFBR2 (human) = TGFBR2 (human) (UniProt P37173)
MAPK13 (human) = MAPK13 (human) (UniProt O15264)
DDR2 (human) = DDR2 (human) (UniProt Q16832)
FGFR1 (human) = FGFR1 (human) (UniProt P11362)
EPHA7 (human) = EPHA7 (human) (UniProt Q15375)
DCLK2 (human) = DCLK2 (human) (UniProt Q8N568)
Sequence of DCLK2 (human) (Q8N568 whole entry, looked up): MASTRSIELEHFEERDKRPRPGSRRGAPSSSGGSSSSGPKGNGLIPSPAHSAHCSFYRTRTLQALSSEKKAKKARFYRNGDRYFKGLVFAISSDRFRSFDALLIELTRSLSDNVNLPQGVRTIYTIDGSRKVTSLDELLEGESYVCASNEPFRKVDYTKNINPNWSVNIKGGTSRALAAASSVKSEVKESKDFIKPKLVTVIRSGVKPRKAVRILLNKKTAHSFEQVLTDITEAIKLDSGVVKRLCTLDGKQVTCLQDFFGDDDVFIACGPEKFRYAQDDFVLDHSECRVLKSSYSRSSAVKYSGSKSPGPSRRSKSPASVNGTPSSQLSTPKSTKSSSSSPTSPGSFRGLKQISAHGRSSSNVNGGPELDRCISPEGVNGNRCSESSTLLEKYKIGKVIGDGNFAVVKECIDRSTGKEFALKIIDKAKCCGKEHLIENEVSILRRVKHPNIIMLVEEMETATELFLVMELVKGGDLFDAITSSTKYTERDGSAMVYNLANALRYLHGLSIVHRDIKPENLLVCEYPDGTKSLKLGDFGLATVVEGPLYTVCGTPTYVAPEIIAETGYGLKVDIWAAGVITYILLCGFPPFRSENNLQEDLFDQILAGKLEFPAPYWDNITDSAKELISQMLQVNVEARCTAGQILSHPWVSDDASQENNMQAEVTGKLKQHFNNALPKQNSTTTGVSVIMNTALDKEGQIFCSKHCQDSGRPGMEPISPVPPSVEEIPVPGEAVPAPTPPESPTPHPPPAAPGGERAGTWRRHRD

PLK1 (human) = PLK1 (human) (UniProt P53350)
WNK2 (human) = WNK2 (human) (UniProt Q9Y3S1)
BMX (human) = BMX (human) (UniProt P51813)
GSG2 (human) = GSG2 (human) (UniProt Q8TF76)
NEK7 (human) = NEK7 (human) (UniProt Q8TDX7)
CDK5 CDK5R1 p25 (human) = CDK5 CDK5R1 p25 (human) (UniProt Q00535+Q15078)
IKBKE (human) = IKBKE (human) (UniProt Q14164)
Sequence of IKBKE (human) (Q14164 whole entry, looked up): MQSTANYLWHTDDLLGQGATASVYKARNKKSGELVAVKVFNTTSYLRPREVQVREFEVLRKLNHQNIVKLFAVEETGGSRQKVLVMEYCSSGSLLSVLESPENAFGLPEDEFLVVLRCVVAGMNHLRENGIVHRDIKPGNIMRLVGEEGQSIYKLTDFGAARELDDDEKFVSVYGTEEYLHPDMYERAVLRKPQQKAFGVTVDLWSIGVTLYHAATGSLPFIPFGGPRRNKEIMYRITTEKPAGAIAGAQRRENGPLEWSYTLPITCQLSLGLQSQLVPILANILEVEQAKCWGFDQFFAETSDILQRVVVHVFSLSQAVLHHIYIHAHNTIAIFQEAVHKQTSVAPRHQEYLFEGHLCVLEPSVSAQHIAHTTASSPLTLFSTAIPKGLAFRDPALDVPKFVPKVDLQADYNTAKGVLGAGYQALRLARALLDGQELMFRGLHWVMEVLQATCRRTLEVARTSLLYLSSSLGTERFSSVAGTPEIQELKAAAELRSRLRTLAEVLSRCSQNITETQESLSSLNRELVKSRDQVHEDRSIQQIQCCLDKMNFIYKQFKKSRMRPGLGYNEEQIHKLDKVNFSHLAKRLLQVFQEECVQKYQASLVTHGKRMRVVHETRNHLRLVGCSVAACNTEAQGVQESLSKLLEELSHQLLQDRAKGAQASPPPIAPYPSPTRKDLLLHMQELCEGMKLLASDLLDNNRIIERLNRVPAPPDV

EPHA8 (human) = EPHA8 (human) (UniProt P29322)
TAOK1 (human) = TAOK1 (human) (UniProt Q7L7X3)
Sequence of TAOK1 (human) (Q7L7X3 whole entry, looked up): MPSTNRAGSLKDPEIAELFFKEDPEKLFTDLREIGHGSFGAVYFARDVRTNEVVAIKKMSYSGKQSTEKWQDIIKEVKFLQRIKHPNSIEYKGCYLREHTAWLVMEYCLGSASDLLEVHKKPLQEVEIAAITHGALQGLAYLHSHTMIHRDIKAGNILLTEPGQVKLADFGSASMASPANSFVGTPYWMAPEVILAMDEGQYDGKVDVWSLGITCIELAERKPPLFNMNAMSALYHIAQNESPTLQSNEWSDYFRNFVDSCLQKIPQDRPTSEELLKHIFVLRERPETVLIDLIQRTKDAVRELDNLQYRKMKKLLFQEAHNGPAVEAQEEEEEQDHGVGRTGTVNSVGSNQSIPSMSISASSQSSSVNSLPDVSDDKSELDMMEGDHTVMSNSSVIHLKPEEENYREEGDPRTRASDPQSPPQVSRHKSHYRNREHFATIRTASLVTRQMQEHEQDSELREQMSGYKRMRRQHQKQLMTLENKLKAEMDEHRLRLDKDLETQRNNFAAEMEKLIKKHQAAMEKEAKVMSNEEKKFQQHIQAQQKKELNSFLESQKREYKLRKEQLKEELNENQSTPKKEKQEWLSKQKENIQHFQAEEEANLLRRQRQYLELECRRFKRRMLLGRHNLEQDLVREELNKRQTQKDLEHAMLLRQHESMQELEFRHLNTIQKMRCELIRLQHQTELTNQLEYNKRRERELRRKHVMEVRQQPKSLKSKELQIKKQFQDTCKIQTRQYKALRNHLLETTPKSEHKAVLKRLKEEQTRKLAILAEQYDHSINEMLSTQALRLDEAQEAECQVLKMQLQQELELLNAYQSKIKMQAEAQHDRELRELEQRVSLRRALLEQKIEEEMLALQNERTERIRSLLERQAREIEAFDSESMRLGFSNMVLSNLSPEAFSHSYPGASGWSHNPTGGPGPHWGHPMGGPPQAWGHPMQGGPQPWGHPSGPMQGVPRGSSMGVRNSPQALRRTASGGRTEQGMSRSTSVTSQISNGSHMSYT

BLK (human) = BLK (human) (UniProt P51451)
Sequence of BLK (human) (P51451 whole entry, looked up): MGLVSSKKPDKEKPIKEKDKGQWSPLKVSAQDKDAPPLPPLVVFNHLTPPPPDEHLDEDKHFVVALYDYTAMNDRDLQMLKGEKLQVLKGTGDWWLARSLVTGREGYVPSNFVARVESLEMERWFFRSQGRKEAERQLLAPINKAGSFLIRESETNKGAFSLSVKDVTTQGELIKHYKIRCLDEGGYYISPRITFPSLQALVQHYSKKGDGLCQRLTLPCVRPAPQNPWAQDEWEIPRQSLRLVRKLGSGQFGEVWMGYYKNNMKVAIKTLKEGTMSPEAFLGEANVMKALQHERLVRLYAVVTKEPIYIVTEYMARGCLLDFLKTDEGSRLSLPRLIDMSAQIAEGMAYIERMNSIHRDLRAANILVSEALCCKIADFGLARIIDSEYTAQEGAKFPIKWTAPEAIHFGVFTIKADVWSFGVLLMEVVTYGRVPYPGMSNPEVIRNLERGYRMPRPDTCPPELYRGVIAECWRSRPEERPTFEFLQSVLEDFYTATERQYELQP

HIPK2 (human) = HIPK2 (human) (UniProt Q9H2X6)
DMPK (human) = DMPK (human) (UniProt Q09013)
INSRR (human) = INSRR (human) (UniProt P14616)
Sequence of INSRR (human) (P14616 whole entry, looked up): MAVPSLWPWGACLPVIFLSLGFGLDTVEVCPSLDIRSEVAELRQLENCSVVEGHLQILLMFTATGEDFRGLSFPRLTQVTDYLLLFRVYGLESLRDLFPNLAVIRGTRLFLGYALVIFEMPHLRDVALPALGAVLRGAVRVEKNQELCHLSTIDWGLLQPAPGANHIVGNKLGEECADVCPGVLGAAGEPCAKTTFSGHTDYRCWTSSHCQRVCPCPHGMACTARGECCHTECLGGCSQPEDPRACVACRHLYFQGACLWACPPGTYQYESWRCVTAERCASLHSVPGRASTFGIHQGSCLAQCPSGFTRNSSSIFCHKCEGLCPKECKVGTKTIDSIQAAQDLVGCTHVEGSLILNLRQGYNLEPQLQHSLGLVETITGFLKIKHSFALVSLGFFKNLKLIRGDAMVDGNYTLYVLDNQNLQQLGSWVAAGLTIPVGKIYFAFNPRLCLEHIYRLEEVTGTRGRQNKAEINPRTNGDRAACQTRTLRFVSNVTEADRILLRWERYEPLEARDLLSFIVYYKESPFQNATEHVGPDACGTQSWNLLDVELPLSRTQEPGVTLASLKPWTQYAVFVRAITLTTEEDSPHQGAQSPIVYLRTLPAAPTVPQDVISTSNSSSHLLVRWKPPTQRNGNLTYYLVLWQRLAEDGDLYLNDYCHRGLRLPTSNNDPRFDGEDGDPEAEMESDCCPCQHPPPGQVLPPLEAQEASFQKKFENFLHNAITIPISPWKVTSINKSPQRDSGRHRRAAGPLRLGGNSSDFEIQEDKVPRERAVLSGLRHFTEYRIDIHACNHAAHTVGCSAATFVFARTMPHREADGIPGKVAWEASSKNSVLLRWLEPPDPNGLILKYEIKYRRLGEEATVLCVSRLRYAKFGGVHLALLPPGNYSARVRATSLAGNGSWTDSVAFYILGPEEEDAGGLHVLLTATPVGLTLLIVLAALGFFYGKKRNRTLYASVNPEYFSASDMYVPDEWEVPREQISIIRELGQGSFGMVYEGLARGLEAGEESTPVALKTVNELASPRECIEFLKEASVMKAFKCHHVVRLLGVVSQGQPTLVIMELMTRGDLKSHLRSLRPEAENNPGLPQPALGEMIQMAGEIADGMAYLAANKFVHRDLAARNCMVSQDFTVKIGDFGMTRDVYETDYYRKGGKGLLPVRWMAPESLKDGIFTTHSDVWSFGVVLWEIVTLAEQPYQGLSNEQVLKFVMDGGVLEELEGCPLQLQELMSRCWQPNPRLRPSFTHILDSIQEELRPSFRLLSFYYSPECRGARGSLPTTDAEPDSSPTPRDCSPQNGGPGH

CSNK1D (human) = CSNK1D (human) (UniProt P48730)
STK17A (human) = STK17A (human) (UniProt Q9UEE5)
MARK4 (human) = MARK4 (human) (UniProt Q96L34)
YES1 (human) = YES1 (human) (UniProt P07947)
GRK4 (human) = GRK4 (human) (UniProt P32298)
PRKCB1 (human) = PRKCB1 (human) (UniProt P05771)
AKT2 (human) = AKT2 (human) (UniProt P31751)
RPS6KB2 (human) = RPS6KB2 (human) (UniProt Q9UBS0)
CDK7 CCNH MNAT1 (human) = CDK7 CCNH MNAT1 (human) (UniProt P50613+P51948+P51946)

Sequence of MAPK12 (human) (P53778 whole entry, looked up): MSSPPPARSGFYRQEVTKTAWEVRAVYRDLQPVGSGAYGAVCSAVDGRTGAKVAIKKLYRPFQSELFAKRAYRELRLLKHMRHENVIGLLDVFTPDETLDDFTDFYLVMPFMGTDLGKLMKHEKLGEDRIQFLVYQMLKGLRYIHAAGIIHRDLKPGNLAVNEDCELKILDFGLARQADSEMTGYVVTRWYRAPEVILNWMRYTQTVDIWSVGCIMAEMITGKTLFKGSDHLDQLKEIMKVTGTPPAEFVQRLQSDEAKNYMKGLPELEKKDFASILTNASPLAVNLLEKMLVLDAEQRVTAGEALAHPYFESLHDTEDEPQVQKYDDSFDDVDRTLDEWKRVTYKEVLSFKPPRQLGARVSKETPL

CC[n+]1c(/C=C/N(C)c2ccccc2)n(-c2ccccc2)c2ccc(-c3nc4ccccc4s3)cc21
residual activity (RPS6KA5 KD2 (human)): 111% | residual activity (SGK2 (human)): 123% | residual activity (FGFR3 (human)): 88.4% | residual activity (MAPK12 (human)): 105% | residual activity (SRC (human)): 94.5% | residual activity (CDK4 CCND3 (human)): 102% | residual activity (MST4 (human)): 93.7% | residual activity (ZAP70 (human)): 95.5% | residual activity (PKN2 (human)): 79.2% | residual activity (PRKCZ (human)): 99.8% | residual activity (HCK (human)): 104% | residual activity (PAK4 (human)): 109% | residual activity (STK11 (human)): 93.1% | residual activity (WEE1 (human)): 92.4% | residual activity (TGFBR2 (human)): 95.1% | residual activity (MAPK13 (human)): 102% | residual activity (DDR2 (human)): 97.4% | residual activity (FGFR1 (human)): 97.4% | residual activity (EPHA7 (human)): 97.9% | residual activity (DCLK2 (human)): 102% | residual activity (PLK1 (human)): 110% | residual activity (WNK2 (human)): 112% | residual activity (BMX (human)): 108% | residual activity (GSG2 (human)): 110% | residual activity (NEK7 (human)): 95.4% | residual activity (CDK5 CDK5R1 p25 (human)): 103% | residual activity (IKBKE (human)): 94.7% | residual activity (EPHA8 (human)): 96.3% | residual activity (TAOK1 (human)): 99.4% | residual activity (BLK (human)): 99.1% | residual activity (HIPK2 (human)): 103% | residual activity (DMPK (human)): 93.9% | residual activity (INSRR (human)): 101% | residual activity (CSNK1D (human)): 104% | residual activity (STK17A (human)): 96.9% | residual activity (MARK4 (human)): 110% | residual activity (YES1 (human)): 94.9% | residual activity (GRK4 (human)): 103% | residual activity (PRKCB1 (human)): 102% | residual activity (AKT2 (human)): 99.6% | residual activity (RPS6KB2 (human)): 93.2% | residual activity (CDK7 CCNH MNAT1 (human)): 97.8%

Nc1cccc(-c2cc3c(Oc4cccc(O)c4)ncnc3[nH]2)c1
residual activity (RPS6KA5 KD2 (human)): 83.6% | residual activity (SGK2 (human)): 96.2% | residual activity (FGFR3 (human)): 67.9% | residual activity (MAPK12 (human)): 88.6% | residual activity (SRC (human)): 2.07% | residual activity (CDK4 CCND3 (human)): 92.8% | residual activity (MST4 (human)): 83.8% | residual activity (ZAP70 (human)): 97.5% | residual activity (PKN2 (human)): 72% | residual activity (PRKCZ (human)): 94% | residual activity (HCK (human)): 6.65% | residual activity (PAK4 (human)): 99.8% | residual activity (STK11 (human)): 12.4% | residual activity (WEE1 (human)): 85.5% | residual activity (TGFBR2 (human)): 42.6% | residual activity (MAPK13 (human)): 104% | residual activity (DDR2 (human)): 29.3% | residual activity (FGFR1 (human)): 39.3% | residual activity (EPHA7 (human)): 77.2% | residual activity (DCLK2 (human)): 89% | residual activity (PLK1 (human)): 104% | residual activity (WNK2 (human)): 103% | residual activity (BMX (human)): 24.3% | residual activity (GSG2 (human)): 93.3% | residual activity (NEK7 (human)): 99.4% | residual activity (CDK5 CDK5R1 p25 (human)): 114% | residual activity (IKBKE (human)): 88.1% | residual activity (EPHA8 (human)): 57.5% | residual activity (TAOK1 (human)): 142% | residual activity (BLK (human)): 38.1% | residual activity (HIPK2 (human)): 100% | residual activity (DMPK (human)): 95.2% | residual activity (INSRR (human)): 96.3% | residual activity (CSNK1D (human)): 96.8% | residual activity (STK17A (human)): 93.7% | residual activity (MARK4 (human)): 68.8% | residual activity (YES1 (human)): 6.05% | residual activity (GRK4 (human)): 94.7% | residual activity (PRKCB1 (human)): 113% | residual activity (AKT2 (human)): 109% | residual activity (RPS6KB2 (human)): 94.7% | residual activity (CDK7 CCNH MNAT1 (human)): 94.2%

CNc1cc2c(Nc3cccc(Br)c3)ncnc2cn1
residual activity (RPS6KA5 KD2 (human)): 92.3% | residual activity (SGK2 (human)): 96.6% | residual activity (FGFR3 (human)): 85.4% | residual activity (MAPK12 (human)): 93.6% | residual activity (SRC (human)): 94.6% | residual activity (CDK4 CCND3 (human)): 120% | residual activity (MST4 (human)): 109% | residual activity (ZAP70 (human)): 99.1% | residual activity (PKN2 (human)): 102% | residual activity (PRKCZ (human)): 98.6% | residual activity (HCK (human)): 84.5% | residual activity (PAK4 (human)): 93% | residual activity (STK11 (human)): 98.3% | residual activity (WEE1 (human)): 75.9% | residual activity (TGFBR2 (human)): 105% | residual activity (MAPK13 (human)): 102% | residual activity (DDR2 (human)): 100% | residual activity (FGFR1 (human)): 96.5% | residual activity (EPHA7 (human)): 94.6% | residual activity (DCLK2 (human)): 90.4% | residual activity (PLK1 (human)): 93.5% | residual activity (WNK2 (human)): 114% | residual activity (BMX (human)): 93.9% | residual activity (GSG2 (human)): 91.8% | residual activity (NEK7 (human)): 90.4% | residual activity (CDK5 CDK5R1 p25 (human)): 82.9% | residual activity (IKBKE (human)): 87.1% | residual activity (EPHA8 (human)): 87.9% | residual activity (TAOK1 (human)): 92.4% | residual activity (BLK (human)): 103% | residual activity (HIPK2 (human)): 98.4% | residual activity (DMPK (human)): 112% | residual activity (INSRR (human)): 98.2% | residual activity (CSNK1D (human)): 98.7% | residual activity (STK17A (human)): 98.4% | residual activity (MARK4 (human)): 84.5% | residual activity (YES1 (human)): 74.7% | residual activity (GRK4 (human)): 98.2% | residual activity (PRKCB1 (human)): 95.3% | residual activity (AKT2 (human)): 99.6% | residual activity (RPS6KB2 (human)): 99.8% | residual activity (CDK7 CCNH MNAT1 (human)): 102%
